We go through two compounds from ChEMBL document CHEMBL4400567, “Discovery of novel selective Janus kinase 2 (JAK2) inhibitors bearing a 1H-pyrazolo[3,4-d]pyrimidin-4-amino scaffold” (Bioorg Med Chem, 2019).

The subject of one test is TF-1. Description: cells. As to conditions: Homo sapiens, TF-1, 48 h. It is filed as functional, cell-based.
A further test can be described thus: cells. It is filed as ADME, cell-based. Conditions: Homo sapiens, NK92, 48 h.
The test system of a further test is HEL. Kind of test: cells. Conditions: Homo sapiens, 48 h. It is filed as functional, cell-based.
For test [1], the target named is Tyrosine-protein kinase JAK1 (Homo sapiens, UniProt P23458). The format is ADME.
Chain of Tyrosine-protein kinase JAK1 (P23458 whole entry): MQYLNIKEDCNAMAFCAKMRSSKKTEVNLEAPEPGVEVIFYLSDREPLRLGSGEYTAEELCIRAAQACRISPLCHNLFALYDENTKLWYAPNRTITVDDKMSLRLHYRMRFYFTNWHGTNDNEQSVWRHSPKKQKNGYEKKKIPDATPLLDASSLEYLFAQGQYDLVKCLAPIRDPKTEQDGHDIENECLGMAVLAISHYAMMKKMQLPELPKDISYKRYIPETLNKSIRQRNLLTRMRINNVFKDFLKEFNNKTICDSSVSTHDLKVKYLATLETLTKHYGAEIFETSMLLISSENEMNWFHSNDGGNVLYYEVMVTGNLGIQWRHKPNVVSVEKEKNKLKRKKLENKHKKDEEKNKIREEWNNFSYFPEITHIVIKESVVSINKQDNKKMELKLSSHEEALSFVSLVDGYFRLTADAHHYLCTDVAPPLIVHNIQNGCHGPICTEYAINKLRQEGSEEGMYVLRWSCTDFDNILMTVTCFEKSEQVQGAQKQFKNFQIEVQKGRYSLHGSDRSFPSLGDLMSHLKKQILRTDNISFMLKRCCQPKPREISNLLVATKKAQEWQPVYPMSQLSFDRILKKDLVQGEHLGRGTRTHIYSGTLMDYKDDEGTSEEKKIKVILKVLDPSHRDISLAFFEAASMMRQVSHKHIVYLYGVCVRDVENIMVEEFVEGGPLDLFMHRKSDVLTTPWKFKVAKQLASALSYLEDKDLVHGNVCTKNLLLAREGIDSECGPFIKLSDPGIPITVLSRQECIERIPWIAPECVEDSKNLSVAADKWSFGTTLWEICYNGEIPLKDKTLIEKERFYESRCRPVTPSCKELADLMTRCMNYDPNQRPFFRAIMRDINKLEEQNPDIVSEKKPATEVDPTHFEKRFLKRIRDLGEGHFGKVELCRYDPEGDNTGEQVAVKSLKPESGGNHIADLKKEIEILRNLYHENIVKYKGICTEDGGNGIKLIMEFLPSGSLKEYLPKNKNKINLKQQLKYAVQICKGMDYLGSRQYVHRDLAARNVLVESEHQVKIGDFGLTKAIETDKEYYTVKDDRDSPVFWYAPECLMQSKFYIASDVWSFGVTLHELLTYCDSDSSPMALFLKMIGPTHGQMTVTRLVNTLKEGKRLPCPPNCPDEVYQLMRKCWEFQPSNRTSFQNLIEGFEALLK
The next test relates to THP-1. Kind of test: cells. Conditions: Homo sapiens. The format is ADME, cell-based.

Each structure is given as a SMILES string.

Description for HEL: Antiproliferative activity against human HEL cells harboring JAK2 V617F mutant measured after 48 hrs by CellTiter-Glo assay
Description for TF-1: Antiproliferative activity against JAK2 wild-type human TF1 cells measured after 48 hrs by CellTiter-Glo assay
Description for THP-1: Cytotoxicity against IL-4 induced JAK1/3 activated human THP1 cells preincubated for 1 hr followed by IL-4 induction and measured after 1 hr by CellTiter-Glo assay

On to `C=CC(=O)N1CCCC(n2nc(-c3cc(C=O)n(C)n3)c3c(N)ncnc32)C1` (stereo not given), for which the IC50 stood at 7.1 µM in the test with TF-1; 23.6 µM in the test “cells”; 8.2 µM with HEL; 0.215 µM in test [1]; 28.8 µM in the test with THP-1.

Regarding `C=CC(=O)N1CCC(n2nc(-c3cc(C(C)(C)O)n(C)n3)c3c(N)ncnc32)C1` (stereo not given), the IC50 in the test with TF-1 worked out at 2 µM; in “cells” it was 22.1 µM; with HEL it was 4.7 µM; in test [1], 0.104 µM; with THP-1, 18.5 µM.
